Reference: patent US11299472B2, “Fumarate salt of (R)-3-(1-(2,3-dichloro-4-(pyrazin-2-yl)phenyl)-2,2,2- trifluoroethyl)-1-methyl-1-(1-methylpiperidin-4-yl) urea, methods of preparation, and uses thereof” (Helsinn Healthcare SA, priority 2017, dated 2022)

Experiments:
[1] = Dog pharmacokinetic study, single oral HM04 fumarate salt 3, 10, 30 mg/kg (Example 10); assay type: in vivo, male Beagle dogs
Description: (§1) The pharmacokinetics of HM04 in plasma after single oral administration of HM04 fumarate salt to 6-week old male Sprague Dawley rats and male Beagle dogs (1-5 years of age) was investigated. Test formulations of 0.6 mg/mL, 2 mg/mL, and 6 mg/mL HM04 fumarate salt (based on weight of the free base) were prepared in 5% glucose solution. Doses of 3, 10, and 30 mg/kg HM04 fumarate salt (based on weight of the free base) were administered by gastric gavage as a 5 mL/kg dose volume of each of the three test formulations. Four animals were in each dose group. The formulation was administered to the dogs in fasting conditions with food provided three hours post-dosing.
Oral absolute bioavailability at 3 mg/kg was calculated from the ratio of individual oral AUC∞ to the individual AUC∞ values determined following intravenous administration of 3 mg/kg HM04 fumarate salt (based on weight of the free base) to the same four male Beagle dogs.
Oral absolute bioavailability at 10 mg/kg was calculated from the ratio of individual oral AUC∞ to the individual AUC∞ values determined following intravenous administration of 10 mg/kg HM04 fumarate salt (based on weight of the free base) to the same four male Beagle dogs.
(§2) Plasma HM04 concentrations were measured by LC-MS/MS following protein precipitation in the 96-well plate format. At the time of analysis samples were thawed out at ambient temperature. Aliquots of 25 μL of rat or dog K3EDTA plasma were spiked with 300 μL of internal standard (25 ng/mL of HM04-d8 in acetonitrile). After gentle vortex mixing for 5 minutes and centrifugation at 2010 g for 15 minutes at 4° C., an aliquot of 100 μL of the organic phase was transferred into a fresh 96-well polypropylene plate, using a P3-Evolution robotic system (Perkin Elmer). Following dilution with 100 μL of […] ammonium formate pH 3.5, an aliquot of 10 μL was injected into the LC-MS/MS system.

human GHSR1a receptor = biological target: T1, human GHSR1a receptor (Homo sapiens, UniProt Q92847); test: Agonist FLIPR assay in HEK293 cells; assay type: cell-based; conditions: FLIPR agonist mode, concentrations up to 10 μM
T1 construct: expressed in transfected cells; host or cells: HEK293
Description: The compounds were diluted with 100% DMSO to make 30 mM stock. On the test day, serial dilutions were prepared starting from the stock solution. For the FLIPR assay: 1) 8 μl of DMSO was added to 2 μl of compound stock solution (30 mM) to produce 10 μl of 6 mM solution; half-fold serial dilutions of the 6 mM solution were produced to generate ten doses; 2) test solutions were obtained by diluting the stock solutions 1/40 in assay buffer (DMSO concentration 2.5%). For the IP-1 assay: 1) 29 μl of DMSO was added to 1 μl of compound stock solution (30 mM) to produce 30 μl of 1 mM solution; half-fold serial dilutions of the 1 mM solution were produced to generate 10 doses; 2) test solutions were obtained by diluting the stock solutions 1/100 in assay buffer (DMSO final concentration 1%).
For the agonist and antagonist activity study, HEK293 cells stably expressing human GHSR1a receptor were used in a (FLIPR) assay. […] Fluorescence signal was detected with FLIPR at room temperature according to standard settings for 10 minutes before cells were exposed to 10 μl of 5× working concentrations of agonists (compound added by FLIPR). The fluorescence signal was detected in the subsequent 3 minutes (antagonist mode).

[2] = Rat pharmacokinetic study, single oral HM04 fumarate salt 3, 10, 30 mg/kg (Example 10); assay type: in vivo, male Sprague Dawley rats
Description: as §1
A comparison of the plasma concentration of HM04 (ng/mL) in rats over time is provided in FIG. 19 and a summary of the pharmacokinetic analysis is provided in Table 5, below. […] The standard deviation associated with the mean oral bioavailability was calculated according to the formula: SDq=[^2√{square root over ((my^2·SDx^2+mx^2−SDy^2))}]/my^2 where q=mean bioavailability; mx=oral dose-normalized mean AUC, and my=IV dose-normalized mean AUC.
as §2

T1 sequence (Q92847 whole entry): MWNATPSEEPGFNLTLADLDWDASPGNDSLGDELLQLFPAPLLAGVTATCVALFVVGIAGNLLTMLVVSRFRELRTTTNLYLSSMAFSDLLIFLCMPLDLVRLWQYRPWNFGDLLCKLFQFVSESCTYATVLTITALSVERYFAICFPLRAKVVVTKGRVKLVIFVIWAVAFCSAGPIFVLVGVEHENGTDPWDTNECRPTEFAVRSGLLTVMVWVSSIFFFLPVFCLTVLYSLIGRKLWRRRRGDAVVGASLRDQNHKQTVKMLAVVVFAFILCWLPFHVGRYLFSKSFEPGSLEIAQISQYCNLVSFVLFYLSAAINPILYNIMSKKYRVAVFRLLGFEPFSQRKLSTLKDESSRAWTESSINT

detectable pre-dose concentrations of HM04 ([1]; 3 mg/kg oral, three of the four dogs, range): 5.15 to 8.31 ng/mL
detectable pre-dose concentration ([1]; oral 10 mg/kg, Dog 2): 8.60 ng/mL
agonist activity (human GHSR1a receptor): No agonist activity was observed
bioavailability ([2]; male, Sprague Dawley, plasma, oral doses of 3 and 10 mg/kg): 40 to 50%
SMILES: CN1CCC(N(C)C(=O)N[C@H](c2ccc(-c3cnccn3)c(Cl)c2Cl)C(F)(F)F)CC1 [HM04, (R)-3-(1-(2,3-dichloro-4-(pyrazin-2-yl)phenyl)-2,2,2-trifluoroethyl)-1-methyl-1-(1-methylpiperidin-4-yl)urea]
exposure to HM04 versus dose ([2]; oral 3, 10, 30 mg/kg): more than a proportional increase at 30 mg/kg
